Laboratory results taken from patent publication US20110190269A1, “GAMMA SECRETASE MODULATORS” (priority 2010, published 2011).

These compounds were tested on γ-secretase (assay: Cellular γ-secretase assay (inhibition of Aβ42 secretion)). Details: human neuroglioma H4 cells overexpressing human APP, 22 hrs incubation.
Assay type: cell-based
Method: Human neuroglioma H4 cells overexpressing human APP were plated at 30,000 cells/well/[…] in 96-well plates in IMDM media containing 10% FCS, […] Hygromycin B and incubated for 2 h at 37° C., 5% CO2 prior to adding test compounds.
Compounds for testing were dissolved in 100% Me2SO yielding in a 10 mM stock solution. Typically […] of these solutions were further diluted in 1000 μl of IMDM media (w/o FCS). Subsequent 1:1 dilutions gave a ten point dose response curve. 100 μl of each dilution was added to the cells in 96-well plates. Appropriate controls using vehicle only and reference compound were applied to this assay. The final concentration of Me2S0 was 0.4%.
After incubation for 22 hrs at 37° C., 5% CO2, 50 μl supernatant was transferred into round-bottom 96-well polypropylene plates for detection of Aβ42. 50 μl assay buffer (50 mM Tris/Cl, pH 7.4, 60 mM NaCl, 0.5% BSA, 1% TWEEN 20) was added to the wells followed by the addition of 100 μl of detection antibody (ruthenylated BAP15 0.0625 μg/ml in assay buffer). 50 μl of a premix of capture antibody (biotinylated 6E10 antibody, 1 μg/ml) and Steptavidin-coated magnetic beads (Dynal M-280, 0.125 mg/ml) were preincubated for 1 hr at room temperature before adding the assay plates. Assay plates were incubated on a shaker for 3 hrs at room temperature and finally read in the Bioveris M8 Analyser according to the manufacturer's instructions (Bioveris).
IC50 values for inhibition of Aβ42 secretion were calculated by nonlinear regression fit analysis using XLfit 4.0 software (IDBS).

SMILES	EC50
COc1cc(Nc2nc3n(n2)CCCC3c2ccc(F)cc2)ccc1-n1cnc(C)c1 (racemic) [Example 1, [8-(4-Fluoro-phenyl)-5,6,7,8-tetrahydro-[1,2,4]triazolo[1,5-a]pyridin-2-yl]-[3-methoxy-4-(4-methyl-imidazol-1-yl)-phenyl]-amine]	330 nM
COc1cc(Nc2nc3n(n2)CCCC3c2ccc(F)cc2)ccc1-n1cnc(C)c1 (single isomer, unassigned) [Example 51]	440 nM
COc1cc(Nc2nc3n(n2)CCCC3c2ccc(F)cc2)ccc1-n1cnc(C)c1 (single isomer, unassigned) [Example 52]	280 nM
COc1cc(Nc2nc3n(n2)C(c2ccc(F)cc2)CCC3)ccc1-n1cnc(C)c1 (stereo not drawn) [Example 2, [5-(4-Fluoro-phenyl)-5,6,7,8-tetrahydro-[1,2,4]triazolo[1,5-a]pyridin-2-yl]-[3-methoxy-4-(4-methyl-imidazol-1-yl)-phenyl]-amine]	320 nM
COc1cccn2nc(Nc3ccc(-n4cnc(C)c4)c(C#N)c3)nc12 [Example 3, 5-(8-Methoxy-[1,2,4]triazolo[1,5-a]pyridin-2-ylamino)-2-(4-methyl-imidazol-1-yl)-benzonitrile]	3350 nM
CCCc1nc(C)cc2nc(Nc3ccc(-n4cnc(C)c4)c(C#N)c3)nn12 [Example 4, 2-(4-Methyl-imidazol-1-yl)-5-(7-methyl-5-propyl-[1,2,4]triazolo[1,5-c]pyrimidin-2-ylamino)-benzonitrile]	1280 nM
COc1cc(Nc2nc3c(OC)cccn3n2)ccc1-n1cnc(C)c1 [Example 7, [3-Methoxy-4-(4-methyl-imidazol-1-yl)-phenyl]-(8-methoxy-[1,2,4]triazolo[1,5-a]pyridin-2-yl)-amine]	930 nM
COc1cc(Nc2nc3c(-c4ccc(F)cc4)nccn3n2)ccc1-n1cnc(C)c1 [Example 11, [8-(4-Fluoro-phenyl)-[1,2,4]triazolo[1,5-a]pyrazin-2-yl]-[3-methoxy-4-(4-methyl-imidazol-1-yl)-phenyl]-amine]	580 nM

The remaining lines, values ahead:

EC50	SMILES
90 nM	COc1ccc(-c2ccccc2)n2nc(Nc3ccc(-n4cnc(C)c4)c(C#N)c3)nc12 [Example 5, 5-(8-Methoxy-5-phenyl-[1,2,4]triazolo[1,5-a]pyridin-2-ylamino)-2-(4-methyl-imidazol-1-yl)-benzonitrile]
120 nM	COc1cc(Nc2nc3cccc(-c4ccccc4)n3n2)ccc1-n1cnc(C)c1 [Example 6, [3-Methoxy-4-(4-methyl-imidazol-1-yl)-phenyl]-(5-phenyl-[1,2,4]triazolo[1,5-a]pyridin-2-yl)-amine]
50 nM	COc1cc(Nc2nc3cccc(-c4ccc(F)cc4)n3n2)ccc1-n1cnc(C)c1 [Example 8, [5-(4-Fluoro-phenyl)-[1,2,4]triazolo[1,5-a]pyridin-2-yl]-[3-methoxy-4-(4-methyl-imidazol-1-yl)-phenyl]-amine]
200 nM	COc1cc(Nc2nc3cncc(-c4ccc(F)cc4)n3n2)ccc1-n1cnc(C)c1 [Example 9, [5-(4-Fluoro-phenyl)-[1,2,4]triazolo[1,5-a]pyrazin-2-yl]-[3-methoxy-4-(4-methyl-imidazol-1-yl)-phenyl]-amine]
60 nM	COc1cc(Nc2nc3c(-c4ccc(F)cc4)cccn3n2)ccc1-n1cnc(C)c1 [Example 10, [8-(4-Fluoro-phenyl)-[1,2,4]triazolo[1,5-a]pyridin-2-yl]-[3-methoxy-4-(4-methyl-imidazol-1-yl)-phenyl]-amine]
400 nM	COc1cc(Nc2nc3cccc(N4CCCC4)n3n2)ccc1-n1cnc(C)c1 [Example 12, [3-Methoxy-4-(4-methyl-imidazol-1-yl)-phenyl]-(5-pyrrolidin-1-yl-[1,2,4]triazolo[1,5-a]pyridin-2-yl)-amine]
100 nM	COc1cc(Nc2nc3cncc(-c4ccccc4)n3n2)ccc1-n1cnc(C)c1 [Example 13, [3-Methoxy-4-(4-methyl-imidazol-1-yl)-phenyl]-(5-phenyl-[1,2,4]triazolo[1,5-a]pyrazin-2-yl)-amine]
